Results taken from patent publication US10844049B2, “GLP-1R agonists and uses thereof” (QILU REGOR THERAPEUTICS INC., priority 2018, dated 2020).
One block for each compound: values may come before it.

Experiments:
[1] = Monkey oral pharmacokinetic (PK) study, non-naïve Cynomolgus male monkeys; assay type: in vivo; conditions: for plasma concentration-time profile: PO, over about 24 hours after oral dosing; for Tmax / bioavailability: male, cynomolgus monkey, plasma; for Tmax / bioavailability / AUC0-24 h / Cmax: oral
Protocol: (§1) Appropriate volumes of vehicles (e.g., 2% Tween 80 (v:v) and 0.5% MC (w:v) in saline or 0.5% MC (w:v) in water were then added into the mortar containing the ground compounds, and the mixture was then grinded with a pestle until a homogeneous paste was formed. Additional appropriate volumes of vehicles were added into the mortar containing each compound, and the mixture was grinded further with the pestle until a homogeneous suspension was obtained.
(§2) The rest of the vehicle was added to make up the final dosing volume of about 1 mg/mL or 2 mg/mL (i.e., final dosing volume of about 5 mL/kg), and the homogenous suspension was continuously stirred prior to and during the dosing.
(§3) Non-naïve Cynomolgus male monkeys (n=3/test article; sourced from Hainan Jingang Biotech Co., Ltd., Nayang Xmtan, Fucheng Town, Qiongshan District, Haikou City, Hainan Province, China); or non-naïve aged, obese, and diabetic male Macaca fascicularis monkeys (n=3/test article, Source: Kunming Biomed International Colony) were used in pre-clinical in vivo studies. All non-naïve Cynomolgus male monkeys were approximately 3 to 5 years old, weighed about 2.5-5 kg, and were within ±20% of the average body weight. All non-naïve aged, obese, and diabetic male Macaca fascicularis monkeys were approximately 12 to 20 years old, weighed about >8-12 kg.
(§4) All animals were fasted overnight before dosing, and the food were supplied approximately 4 hours post dose (with free access to water all the time).
(§5) Animals were restrained at designated time points for blood sampling. Approximately 500 μL of blood samples was taken via cephalic or saphenous vein into EDTA-K2 tubes. Blood samples were put on wet ice before centrifugation.
(§6) For oral administration (PO) of either Dose 1 or Dose 2: blood samples were collected at pre-dose, and at 15 min, 30 min, 1 hr, 2 hr, 4 hr, (6 hr for compounds 19 and 28 with cynomolgus monkeys only), 8 hr, 12 hr, and 24 hr post dose (i.e., 9 or 10 total time points for each compound at each dose).
(§7) The blood samples were centrifuged at approximately 2,000-4,000 rpm for about 10-15 minutes at 2-8′C, and each resulting plasma portion was then transferred into an individual tube.
(§8) LC-MS/MS methods were developed, and bioanalysis for the test articles in monkey plasma was performed according to the developed LC-MS/MS methods.
Undiluted plasma samples: An aliquot of 20-50 μL plasma sample was mixed with 200 μL of ACN or MeOH containing one of the internal standards (IS, e.g., Diclofenac or Terfenadine). The mixture was then vortexed for about 1-5 min, and centrifuged at about 4,000-5,800 rpm for about 10-15 min. An aliquot of 1 μL supernatant was used for LC-MS/MS analysis.
(§9) Pharmacokinetics parameters, including area under the curve (AUC0-t), maximum plasma concentration (Cmax), time to reach maximum plasma concentration (Tmax), oral bioavailability (F %), etc., were calculated using Phoenix software (Version 6.4) and non-compartment model.

GLP1R = GLP1R (Homo sapiens, UniProt P43220); assay: GLP-1R/β-Arrestin recruitment assay (PathHunter eXpress GLP1R CHO-K1 β-Arrestin GPCR Assay); assay type: cell-based; set-up: host or cells: PathHunter CHO-K1 GLP1R β-Arrestin cells; conditions: averaged Bmax, percentage of control GLP-1 (7-37), highest concentration tested
Description: GLP-1R agonist activity with respect to β-arrestin recruitment can be determined with a cell-based functional assay using PathHuntcr eXpress GLP1R CHO-K1 β-Arrestin GPCR Assay kit (DiscovcrX Cat #93-0300E2CP0M).
The PathHunter β-Arrestin GPCR assay technology utilizes a β-galactosidase (β-gal) enzyme that is split into two fragments, the smaller Enzyme Donor (ED) and the larger Enzyme Acceptor (EA). These fragments can be fused to two proteins that may interact with each other, such as EA-β-Arrestin and ED-GLP-1R. The fusions can be stably expressed in a test cell line, such as the PathHunter CHO-K1 GLP1R β-Arrestin cells described below.
Independently, these fragment fusions have no β-gal activity; however, in solution or in a living cell, they can be brought together and complement to form an active β-gal enzyme due to the interaction between the fused proteins, thus generating a chemiluminescent signal in the presence of a suitable β-gal substrate.
In this experiment, PathHunter CHO-K1 GLP1R β-Arrestin cells from the assay kit were plated at a density of 1000 or 2000 cells/20 μl/well in a 384-well white/clear bottom plates (Greiner Cat #781098). Frozen cells were quickly thawed and 10 mL of cell plating medium (provided by the kit) was added to thawed cells. Cells were stored in a 37° C. incubator under 5% CO2 and kept for approximately 48 hours until ready to ran the assay.
Reference and test compounds were dissolved in 100% DMSO. 5× concentration of an agonist was prepared in serum free DMEM (Thermo Cat #11965). 5 μL of this solution was added to 20 μL cell medium in assay plate for a final top concentration of 10 μM. Plates were then incubated at 37° C. under 5% CO2 for 90 min.
Following 90 min incubation, detection reagents were made up by combining 1 part Galacton Star Substrate with 5 parts Emerald II™ Solution, and 19 parts of PathHunter Cell Assay Buffer, respectively. 12.5 μL detection reagent was added to each well. The plates were then incubated at room temperature in dark for 60 min. Plates were then read on Envision for 0.1 sec/well.
EC50 determinations were made from agonist dose-response curves analyzed with a curve fitting program using a 4-parameter logistic dose response equation.
Cells were plated at a density of 1000 or 2000 cells/20 μL/well. Frozen cells were quickly thawed and added to 10 mL of cell plating medium. Cells were stored in a 37° C. incubator under 5% CO2 and left for approximately 48 hours until ready to run the assay.
• 1) Reference agonist compound GLP1 (7-37): dissolved with DMSO to make 1 mM stock solutions, aliquoted and stored at −80° C. • 2) Test compounds (such as the compounds of the invention) came solubilized in 100% DMSO.
Prepare 10× concentration of an agonist in serum free DMEM, and add all solutions into the compound plate. 2.5 μL of this solution was added to 20 μL cell medium in assay plate for a final top concentration of 10 μM. Plates were incubated at 37° C. under 5% CO2 for 30 min. An additional 2.5 μL of Buffer was added to the entire plate for agonist mode and incubated at 37° C. for another 90 min.
Following 90 min incubation, detection reagents were made up as described. 12.5 μL was added to all wells. The plates were then incubated at room temperature in dark for 60 min. Plates were then read on Envision for 0.1 sec/well.
Data analysis: GraphPad Prism 6 was used for establishment of progression curve. EC50S or IC50s were determined by 4-parameter logistic dose response equation.

[2] = Monkey oral pharmacokinetic (PK) study, aged, obese, and diabetic male monkeys; assay type: in vivo; conditions: Dose 2, non-naïve aged, obese, and diabetic male Macaca fascicularis monkeys
Protocol: as §1, §2, §3, §4, §5, §6, §7, §8
Undiluted plasma samples: An aliquot of 20-50 μL plasma sample was mixed with 200 μL of ACN or MeOH containing one of the internal standards (IS, e.g., Diclofenac or Terfenadine). […]
as §9

Chain of GLP1R (P43220 24-463): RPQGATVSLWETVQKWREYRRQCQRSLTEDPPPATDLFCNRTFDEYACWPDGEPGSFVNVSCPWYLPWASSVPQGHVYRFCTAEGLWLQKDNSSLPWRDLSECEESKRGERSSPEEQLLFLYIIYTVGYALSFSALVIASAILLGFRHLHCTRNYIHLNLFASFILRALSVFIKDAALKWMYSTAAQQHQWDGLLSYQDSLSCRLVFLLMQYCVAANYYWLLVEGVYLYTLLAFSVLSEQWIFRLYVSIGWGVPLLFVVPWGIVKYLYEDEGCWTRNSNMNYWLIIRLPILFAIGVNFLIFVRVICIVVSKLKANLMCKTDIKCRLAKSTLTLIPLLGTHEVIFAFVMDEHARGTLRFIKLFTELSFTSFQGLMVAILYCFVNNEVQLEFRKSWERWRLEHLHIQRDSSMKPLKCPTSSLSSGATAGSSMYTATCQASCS

SMILES: O=C(O)c1ccc2nc(CN3CC=C(c4cccc(OCc5ccc(Cl)cc5F)c4)CC3)n(C[C@@H]3CCO3)c2c1 [Compound 28, (S)-2-((4-(3-((4-chloro-2-fluorobenzyl)oxy)phenyl)-3,6-dihydropyridin-1(2H)-yl)methyl)-1-(oxetan-2-ylmethyl)-1 h-benzo[d]imidazole-6-carboxylic add]
plasma concentration-time profile [1]: sustained at a more constant level | Tmax ([1]; Dose 1): 3.3 h | bioavailability ([1]; Dose 1): 56.1% | AUC0-24 h ([1]; Dose 1): 24900 Arbitrary units | Cmax ([1]; Dose 1): 3910 Arbitrary unit | Bmax (POC) (GLP1R): 28.5 ± 6.36 POC

SMILES: N#Cc1ccc(COc2cccc(C3=CCN(Cc4nc5ccc(C(=O)O)nc5n4C[C@@H]4CCO4)CC3)n2)c(F)c1 [Compound 225, (S)-2-((6-((4-cyano-2-fluorobenzyl)oxy)-3′,6′-dihydro-[2,4′-bipyridin]-1′(2′H)-yl)methyl)-3-(oxetan-2-ylmethyl)-3H-imidazo[4,5-b]pyridine-5-carboxylic add]
plasma concentration-time profile [1]: sustained at a more constant level | Tmax ([1]; Dose 2): 4 h | bioavailability ([1]; Dose 2): 9.93% | AUC0-24 h ([1]; Dose 2): 1500 Arbitrary units | Cmax ([1]; Dose 2): 184 Arbitrary unit | Bmax (POC) (GLP1R): 32.5 ± 3.55 POC

SMILES: N#Cc1ccc(COc2cccc(C3=CCN(Cc4nc5ccc(C(=O)O)cc5n4C[C@@H]4CCO4)CC3)n2)c(F)c1 [Compound 19, (S)-2-((4-(6-(4-cyano-2-fluorobenzyloxy)pyridin-2-yl)-5,6-dihydropyridin-1(2H)-yl)methyl)-1-(oxetan-2-ylmethyl)-1 h-benzo[d]imidazole-6-carboxylic add]
plasma concentration-time profile [1]: sustained at a more constant level | Tmax ([1]; Dose 1): 2.7 h | bioavailability ([1]; Dose 1): 10.8% | AUC0-24 h ([1]; Dose 1): 1130 Arbitrary units | Cmax ([1]; Dose 1): 125 Arbitrary unit | Bmax (POC) (GLP1R): 26.0 ± 2.78 POC | AUC0-24 h [2]: 2470 Arbitrary units | Cmax [2]: 413 Arbitrary unit | Tmax ([2]; cynomolgus monkey, plasma): 8.8 h | bioavailability ([2]; cynomolgus monkey, plasma): 15.5%

SMILES: O=C(O)c1ccc2nc(CN3CCC(c4cncc(OCc5ccc(Cl)cc5F)n4)CC3)n(C[C@@H]3CCO3)c2c1 [Compound 21, (S)-2-((4-(6-(4-chloro-2-fluorobenzyloxy)pyrazin-2-yl)piperidin-1-yl)methyl)-1-(oxetan-2-ylmethyl)-1 h-benzo[d]imidazole-6-carboxylic acid]
Bmax (POC) (GLP1R): 19.0 ± 0.982 POC

SMILES: O=C(O)c1ccc2nc(CN3CC=C(c4ccc(F)c(OCc5ccc(Cl)cc5F)c4)CC3)n(C[C@@H]3CCO3)c2c1 [Compound 29, (S)-2-((4-(3-((4-chloro-2-fluorobenzyl)oxy)-4-fluorophenyl)-3,6-dihydropyridin-1(2H)-yl)methyl)-1-(oxetan-2-ylmethyl)-1 h-benzo[d]imidazole-6-carboxylic acid]
plasma concentration-time profile [1]: sustained at a more constant level | Tmax ([1]; Dose 2): 1.2 h | bioavailability ([1]; Dose 2): 41% | AUC0-24 h ([1]; Dose 2): 21800 Arbitrary units | Cmax ([1]; Dose 2): 3380 Arbitrary unit | Bmax (POC) (GLP1R): 36.6 ± 7.77 POC

SMILES: O=C(O)c1ccc2nc(CN3CCC(c4ccnc(OCc5ccc(Cl)cc5F)n4)CC3)n(C[C@@H]3CCO3)c2c1 [Compound 18, (S)-2-((4-(2-((4-chloro-2-fluorobenzyl)oxy)pyrimidin-4-yl)piperidin-1-yl)methyl)-1-(oxetan-2-ylmethyl)-1H-benzo[d]imidazole-6-carboxylic acid]
Bmax (POC) (GLP1R): 26.2 ± 1.55 POC

Continued, values first:

Bmax (POC) (GLP1R): 38.0 ± 6.42 POC
SMILES: O=C(O)c1ccc2nc(CN3CC=C(c4cccc(OCc5ccc(-n6ccnc6)cc5)n4)CC3)n(C[C@@H]3CCO3)c2n1 [Compound 245, (S)-2-((4-(6-(4-(1H-imidazol-1-yl)benzyloxy)pyridin-2-yl)-5,6-dihydropyridin-1(2H)-yl)methyl)-3-(oxetan-2-ylmethyl)-3H-imidazo[4,5-b]pyridine-5-carboxylic add]

Bmax (POC) (GLP1R): 35.6 ± 5.38 POC
SMILES: O=C(O)c1ccc2nc(CN3CC=C(c4cccc(OCc5ccc(Cl)cc5F)n4)CC3)n(C[C@@H]3CCO3)c2c1 [Compound 221, (S)-2-((6-((4-chloro-2-fluorobenzyl)oxy)-3′,6′-dihydro-[2,4′-bipyridin]-1′(2′H)-yl)methyl)-1-(oxetan-2-ylmethyl)-1H-benzo[d]imidazole-6-carboxylic acid]

Bmax (POC) (GLP1R): 20.2 ± 1.89 POC
SMILES: O=C(O)c1ccc2nc(CN3CC=C(c4cncc(OCc5ccc(Cl)cc5F)n4)CC3)n(C[C@@H]3CCO3)c2c1 [Compound 34, (S)-2-((4-(6-(4-chloro-2-fluorobenzyloxy)pyrazin-2-yl)-5,6-dihydropyridin-1(2H)-yl)methyl)-1-(oxetan-2-ylmethyl)-1 h-benzo[d]imidazole-6-carboxylic acid]
